According to patent publication US20220232834A1, “PSEUDOMONAS CHLORORAPHIS SPECIES AND ITS USE IN THE CONTROL OF DISEASES CAUSED BY BACTERIA AND FUNGI” (T3 BIOSCIENCE, LLC, priority 2021, published 2022):
≈ marks a conversion by molar mass, not a printed value. Read-outs that look alike come from different tables or passages of the source. Marks after values point to notes of the source that are not given here.

Key:
Staphylococcus aureus = conditions: Ref 3-4; producer Pseudomonas sp. B-9004; cited from earlier work
[1] = test system: 22 bacteria and fungi, including Gram-positive bacteria mycobacteria; conditions: Ref 3-4; producer Pseudomonas sp. B-9004; cited from earlier work
[2] = test system: Clavibacter michiganensis subsp. michiganensis Cmm 0317; assay: plate diffusion assay; assay type: cell-based; conditions: 200 μg/mL, read-out: Diameter of Growth Inhibition Zone
[3] = test system: Pseudomonas syringae. pv. tomato PT30; assay: microbe, parasite or virus in culture; assay type: cell-based
[4] = test system: Ralstonia solanacearum K60; assay: microbe, parasite or virus in culture; assay type: cell-based
[5] = test system: Clavibacter michiganensis subsp. michiganensis Cmm 0690; assay: plate diffusion assay; assay type: cell-based; conditions: 200 μg/mL, read-out: Diameter of Growth Inhibition Zone
[6] = test system: Xanthomonas euvesicatoria 75-3; assay: microbe, parasite or virus in culture; assay type: cell-based; conditions: 753
[7] = test system: Clavibacter michiganensis subsp. michiganensis NCPPB382; assay: plate diffusion assay; assay type: cell-based; conditions: 200 μg/mL, read-out: Diameter of Growth Inhibition Zone
[8] = test system: Clavibacter michiganensis subsp. michiganensis 382; assay: MIC value study of 1214-CHY4 metabolites; assay type: cell-based
[9] = test system: Venturia inaequalis VI19-032; assay: microbe, parasite or virus in culture; assay type: cell-based; conditions: VI19032
[10] = test system: Phytophthora infestans 88069; assay: microbe, parasite or virus in culture; assay type: cell-based
Seiridium cardinale = conditions: Ref 4; producer P. chlororaphis subsp. aureofaciens M71; cited from earlier work
Botrytis cinerea = conditions: cited from earlier work
Vibrio anguillarum C312 = conditions: Ref 5; producer P. aeruginosa PA31x; cited from earlier work
Botrytis cinerea CA17 = assay: microbe, parasite or virus in culture; assay type: cell-based
Phytophthora infestans = conditions: cited from earlier work
[11] = test system: Alternaria alternata, Phytophthora sp., Fusarium solani, F. oxysporum; conditions: Ref 12; producer P. chlororaphis MCC2693; cited from earlier work
[12] = test system: Gaeumannomyces graminis var. tritici.; conditions: Ref 6; producer P. fluorescens 2-79; cited from earlier work
Fusarium oxysporum = conditions: cited from earlier work
[13] = test system: Staphylococcus epidermidis ATCC 14990; conditions: Ref 6; producer Pseudomonas aurantiaca; cited from earlier work
[14] = test system: Streptococcus mutans ATCC 25175; conditions: Ref 6; producer Pseudomonas aurantiaca; cited from earlier work
[15] = test system: Staphylococcus aureus ATCC 12600; conditions: Ref 6; producer Pseudomonas aurantiaca; cited from earlier work
[16] = test system: Bacillus subtilis subsp. spizizenii ATCC 6633; conditions: Ref 6; producer Pseudomonas aurantiaca; cited from earlier work
[17] = test system: Enterococcus hirae ATCC 8043; conditions: Ref 6; producer Pseudomonas aurantiaca; cited from earlier work
[18] = test system: Xanthomonas arboricola pv. juglandis 219; assay: microbe, parasite or virus in culture; assay type: cell-based; conditions: read-out: Diameter of Growth Inhibition Zone
[19] = test system: Ralstonia solanacearum K60; assay: microbe, parasite or virus in culture; assay type: cell-based; conditions: K60, read-out: Diameter of Growth Inhibition Zone
Erwinia amylovora 88 = assay: microbe, parasite or virus in culture; assay type: cell-based; conditions: Erwinia amylovora, 88, read-out: Diameter of Growth Inhibition Zone
Dickeya dadantii 3937 = assay: microbe, parasite or virus in culture; assay type: cell-based; conditions: Dickeya dadantii, 3937, read-out: Diameter of Growth Inhibition Zone
[20] = test system: Xanthomonas axonopodis pv. citri-Miami XC2002-00010; assay: plate diffusion assay; assay type: cell-based; conditions: read-out: Diameter of Growth Inhibition Zone
Erwinia amylovora DM1 = assay: microbe, parasite or virus in culture; assay type: cell-based; conditions: DM1, read-out: Diameter of Growth Inhibition Zone
[21] = test system: Pectobacterium carotovorum subsp brasillensis 944; assay: microbe, parasite or virus in culture; assay type: cell-based; conditions: read-out: Diameter of Growth Inhibition Zone
[22] = test system: Xanthomonas campestris pv. vesicatoria XV-16; assay: microbe, parasite or virus in culture; assay type: cell-based; conditions: read-out: Diameter of Growth Inhibition Zone
[23] = test system: Pseudomonas savastanoi pv. savastanoi; assay: microbe, parasite or virus in culture; assay type: cell-based; conditions: read-out: Diameter of Growth Inhibition Zone
[24] = test system: Xanthomonas arboricola pv. juglandis 417; assay: microbe, parasite or virus in culture; assay type: cell-based; conditions: read-out: Diameter of Growth Inhibition Zone
[25] = test system: Ralstonia solanacearum Pss4; assay: microbe, parasite or virus in culture; assay type: cell-based; conditions: PSS4, read-out: Diameter of Growth Inhibition Zone
Erwinia amylovora 1189 = assay: microbe, parasite or virus in culture; assay type: cell-based; conditions: Erwinia amylovora, 1189, read-out: Diameter of Growth Inhibition Zone
[26] = test system: Xanthomonas campestris pv. pruni; assay: microbe, parasite or virus in culture; assay type: cell-based; conditions: read-out: Diameter of Growth Inhibition Zone
Erwinia amylovora CA11 = assay: microbe, parasite or virus in culture; assay type: cell-based; conditions: CA11, read-out: Diameter of Growth Inhibition Zone
[27] = test system: Pseudomonas syringae. pv syringae 7046; assay: microbe, parasite or virus in culture; assay type: cell-based; conditions: read-out: Diameter of Growth Inhibition Zone
[28] = test system: Xanthomonas axonopodis pv. citri N40-SO5; assay: plate diffusion assay; assay type: cell-based; conditions: read-out: Diameter of Growth Inhibition Zone
[29] = test system: Pseudomonas syringae. pv. tomato PT30; assay: microbe, parasite or virus in culture; assay type: cell-based; conditions: read-out: Diameter of Growth Inhibition Zone
Erwinia amylovora 110 = assay: microbe, parasite or virus in culture; assay type: cell-based; conditions: Erwinia amylovora, 110, read-out: Diameter of Growth Inhibition Zone
[30] = test system: Pectobacterium atrosepticum 942; assay: microbe, parasite or virus in culture; assay type: cell-based; conditions: Pectobacterium atrosepticum, 942, read-out: Diameter of Growth Inhibition Zone
[31] = test system: Pectobacterium carotovorum subsp. carotovorum wpp14 945; assay: microbe, parasite or virus in culture; assay type: cell-based; conditions: read-out: Diameter of Growth Inhibition Zone
[32] = test system: Pectobacterium parmentieri UPP163 936; assay: microbe, parasite or virus in culture; assay type: cell-based; conditions: UPP163936, read-out: Diameter of Growth Inhibition Zone
[33] = test system: Pseudomonas syringae. pv. lachrymans 1188-1; assay: microbe, parasite or virus in culture; assay type: cell-based; conditions: read-out: Diameter of Growth Inhibition Zone
Candida albicans = conditions: Ref 1; producer Pseudomonas sp. Ki19; cited from earlier work
Drechslera sorokiniana = conditions: Ref 1; producer Pseudomonas sp. Ki19; cited from earlier work
Aspergillus fumigatus = conditions: Ref 1; producer Pseudomonas sp. Ki19; cited from earlier work
Fusarium culmorum = conditions: Ref 1; producer Pseudomonas sp. Ki19; cited from earlier work
[34] = Ref 5, producer Pseudomonas sp. DC165, cited from earlier work
Pseudomonas sevastanoi = conditions: Ref 1; producer Pseudomonas sp. Ki19; cited from earlier work
Staphyllococcus aureus = conditions: Ref 1; producer Pseudomonas sp. Ki19; cited from earlier work

## CCCCCCc1c(O)cc(CCC)cc1O [DB2073]
Staphylococcus aureus
  Activity (MIC values): (25 μg/mL)
[1]
  Activity: Active against 22 bacteria and fungi,

## CN[C@H](CC(C)C)C(=O)N[C@H]1C(=O)N[C@@H](CC(N)=O)C(=O)N[C@H]2C(=O)N[C@H]3C(=O)N[C@H](C(=O)N[C@H](C(=O)O)c4cc(O)cc(O)c4-c4cc3ccc4O)[C@H](O)c3ccc(c(Cl)c3)Oc3cc2cc(c3O[C@@H]2O[C@H](CO)[C@@H](O)[C@H](O)[C@H]2O[C@H]2C[C@](C)(N)[C@H](O)[C@H](C)O2)Oc2ccc(cc2Cl)[C@H]1O [Vancomycin, reference compound]
[2]
  zone of inhibition at 200 µg/mL: 11 mm
[3]
  MIC: 100 µg/mL (≈ 69 µM)
[4]; Ralstonia solanacearum, K60
  MIC: 100 µg/mL (≈ 69 µM)
[5]
  zone of inhibition at 200 µg/mL: 12 mm
[6]
  MIC: 50 µg/mL (≈ 34.5 µM)
[7]
  zone of inhibition at 200 µg/mL: 13 mm
[8]; Clavibacter michiganensis
  MIC: 0.39 µg/mL

## O=C(O)c1cccc2nc3ccccc3nc12 (single isomer, unassigned) [Peak 4, phenazine-1-carboxylic acid]
[9]
  MIC: 31.3 µg/mL (≈ 140 µM)
[3]
  MIC: 100 µg/mL (≈ 446 µM)
[10]
  MIC: 1.56 µg/mL (≈ 6.96 µM)
Seiridium cardinale
  Active Against: Seiridium cardinale
Botrytis cinerea; Ref 1, producer P. aeruginosa LV Strain
  Active Against: Botrytis cinerea
Botrytis cinerea; Upadhyay and Srivastava, 2011
  reported to be effective against: effective
Vibrio anguillarum C312
  Active Against: Vibrio anguillarum C312
[4]; Ralstonia solanacearum, K60
  MIC: 6.25 µg/mL (≈ 27.9 µM)
[4]; agar dilution method
  MIC: 6.25^b μg/mL
[6]
  MIC: 100 µg/mL (≈ 446 µM)
Botrytis cinerea CA17
  MIC: 62.5 µg/mL (≈ 279 µM)
Phytophthora infestans; Ref 2, producer P. fluorescens LBUM636
  Active Against: Phytophthora infestans
Phytophthora infestans; Ref 3, producer P. fluorescens LBUM223
  Active Against: Phytophthora infestans
[11]
  Active Against (order): Alternaria alternata > Phytophthora sp. >
[12]
  Active Against: Gaeumannomyces graminis var. tritici.
Fusarium oxysporum; Ref 7, producer P. fluorescens strain Psd
  Active Against: Fusarium oxysporum
Fusarium oxysporum; Upadhyay and Srivastava, 2011
  reported to be effective against: effective
[8]; Clavibacter michiganensis
  MIC: 100 µg/mL

## CCCCCCCc1cc(O)c(CCCCCC)c(O)c1 (single isomer, unassigned) [Peak 3, 2-hexyl-5-heptylbenzene-1,3-diol]
[9]
  MIC: > 100 µg/mL
[3]
  MIC: 156 µg/mL (≈ 533 µM)
[10]
  MIC: > 100 µg/mL
[13]
  Activity (MIC values): ATCC 14990 (4.2 μg/mL)
[4]; Ralstonia solanacearum, K60
  MIC: > 25000 µg/mL
[6]
  MIC: 78 µg/mL (≈ 267 µM)
[14]
  Activity (MIC values): ATCC 25175(8.4 μg/mL)
[15]
  Activity (MIC values): ATCC 12600 (4.2 μg/mL)
Botrytis cinerea CA17
  MIC: > 100 µg/mL
[16]
  Activity (MIC values): ATCC 6633(33.4 μg/mL)
[17]
  Activity (MIC values): ATCC 8043 (8.4 μg/mL)
[8]; Clavibacter michiganensis
  MIC: 0.78 µg/mL
[8]; modified broth dilution (microdilution) method
  MIC: 0.78^c μg/mL

## [H]/N=C(/N)N[C@H]1[C@H](O)[C@@H](O)[C@H](O[C@@H]2O[C@@H](C)[C@](O)(C=O)[C@H]2O[C@@H]2O[C@@H](CO)[C@H](O)[C@@H](O)[C@@H]2NC)[C@@H](N/C(N)=N\[H])[C@@H]1O [Streptomycin]
[18]
  zone of inhibition at 200 µg/mL: 0 mm
[19]
  zone of inhibition at 200 µg/mL: 3 mm
Erwinia amylovora 88
  zone of inhibition at 200 µg/mL: 0 mm
Dickeya dadantii 3937
  zone of inhibition at 200 µg/mL: 5 mm
[20]
  zone of inhibition at 200 µg/mL: 21 mm
Erwinia amylovora DM1
  zone of inhibition at 200 µg/mL: 0 mm
[3]
  MIC: 3.13 µg/mL (≈ 5.38 µM)
[21]
  zone of inhibition at 200 µg/mL: 0 mm
[22]
  zone of inhibition at 200 µg/mL: 10 mm
[23]
  zone of inhibition at 200 µg/mL: 6 mm
[24]
  zone of inhibition at 200 µg/mL: 10 mm
[25]
  zone of inhibition at 200 µg/mL: 3 mm
[4]; Ralstonia solanacearum, K60
  MIC: 25 µg/mL (≈ 43 µM)
[6]
  MIC: 50 µg/mL (≈ 86 µM)
Erwinia amylovora 1189
  zone of inhibition at 200 µg/mL: 5 mm
[26]
  zone of inhibition at 200 µg/mL: 0 mm
Erwinia amylovora CA11
  zone of inhibition at 200 µg/mL: 0 mm
[27]
  zone of inhibition at 200 µg/mL: 5 mm
[28]
  zone of inhibition at 200 µg/mL: 22 mm
[29]
  zone of inhibition at 200 µg/mL: 6 mm
Erwinia amylovora 110
  zone of inhibition at 200 µg/mL: 5 mm
[30]
  zone of inhibition at 200 µg/mL: 0 mm
[31]
  zone of inhibition at 200 µg/mL: 0 mm
[32]
  zone of inhibition at 200 µg/mL: 5 mm
[33]
  zone of inhibition at 200 µg/mL: 6 mm
[8]; Clavibacter michiganensis
  MIC: 12.5 µg/mL

## CCCCCCc1c(O)cc(CCCCC)cc1O (single isomer, unassigned) [Peak 2, 2-hexyl-5-pentylbenzene-1,3-diol]
[9]
  MIC: > 100 µg/mL
Candida albicans
  Activity (MIC values): Candida albicans (50 μg/mL)
Drechslera sorokiniana
  Activity (MIC values): Drechslera sorokiniana (50 μg/mL)
[3]
  MIC: 312 µg/mL (≈ 1180 µM)
[10]
  MIC: > 100 µg/mL
Aspergillus fumigatus
  Activity (MIC values): Aspergillus fumigatus (50 μg/mL)
[13]
  Activity (MIC values): ATCC 14990 (4.2 μg/mL)
[4]; Ralstonia solanacearum, K60
  MIC: > 25000 µg/mL
Fusarium culmorum
  Activity (MIC values): Fusarium culmorum (50 μg/mL)
[6]
  MIC: 78 µg/mL (≈ 295 µM)
[14]
  Activity (MIC values): ATCC 25175(4.2 μg/mL)
[34]
  Activity: free radical scavenging: Free radical scavenging substances
[34]; listed as Resorstatin
  Activity: free radical scavenging: free radical scavenging substance
[15]
  Activity (MIC values): ATCC 12600 (2.1 μg/mL)
Pseudomonas sevastanoi
  Activity (MIC values): Pseudomonas sevastanoi (50 μg/mL)
Botrytis cinerea CA17
  MIC: > 100 µg/mL
Staphyllococcus aureus
  Activity (MIC values): Staphyllococcus aureus (7 μg/mL)
[16]
  Activity (MIC values): ATCC 6633(4.2 μg/mL)
[17]
  Activity (MIC values): ATCC 8043 (4.2 μg/mL)
[8]
  MIC: 1.56^c μg/mL
[8]; Clavibacter michiganensis
  MIC: 1.56 µg/mL
